Legend:
[1] = system: nontypeable Haemophilus influenzae
Protocol: Human alveolar macrophages were purified from individual BAL samples by centrifugation and seeded onto 6-well tissue culture plates. After incubation for 2 h, non-adherent cells were removed and the adherent cells were incubated with R, S-sulforaphane (5 μM; LKT Laboratories, Inc., St. Paul, Minn.) and or DMSO in RPMI 1640 culture medium with 10% FBS and 1% penicillin-streptomycin (Invitrogen, Carlsbad, Calif.). After 16-20 h, adherent cells were scraped, suspended in RPMI 1640 culture media and plated onto 96-well tissue culture plates for bacterial phagocytosis and clearance assays. […] For MARCO antibody-depletion, alveolar macrophages were incubated with human anti-MARCO antibody (1 μg/ml; (Hycult, Uden, The Netherlands) for 4 hours prior to bacterial challenge. […]
After treatment, macrophages (10^5 cells) were incubated with bacteria (PA or NTHI) for 4 h. […] The number of bacterial colonies was counted after 24 h.

IL-8 promoter = experiment: ChIP of IL-8 promoter (histone acetylation, HDAC2 binding) in alveolar macrophages; format: cell-based, human
Protocol: For inducing corticosteroid resistance, PMs were exposed to cigarette smoke condensate (CSC, 100 μg/ml; Murty Pharmaceuticals, Lexington, Ky.) for 16 h. Exposure to S-nitrosoglutathione (GSNO, 10 μM) was limited to 4 h. […] For assessing corticosteroid responsiveness, macrophages were incubated with dexamethasone (1 μM, Sigma) for 1 h followed by LPS (100 ng/ml, Sigma) for additional 4 h.
Chromatin immunoprecipitation was performed as described previously (Hogg, J. C. & Timens, W., Annu Rev Pathol (2008)). Briefly, cells were fixed in ˜1% formaldehyde in cell growth media for 10 minutes followed by glycine fixation. Cells were then sonicated in ChIP-lysis buffer containing a protease inhibitor cocktail after incubation on ice for 30 minutes. […] sonication, the samples were spun at maximum speed for 12 minutes in a cold microcentrifuge. The supernatants were then addressed as input samples. A part of the input sample was precleared by using a 50% slurry of protein A/G beads prepared in immunoprecipitation (IP) buffer for 2 hours in the cold, following which the beads were centrifuged out and the supernatant was used for IP. Then the precleared samples were incubated with 2 μg of panacetylated histone H4 antibody (ChIP assay kit; Upstate Biotechnology) or anti-HDAC2 antibody from Santa Cruz Biotechnology. As a control, anti-rabbit IgG antibody was added for 1 hour in the cold. The protein A/G bead slurry was added to each reaction and was rotated overnight. The next day, the beads were washed extensively, and the DNA was reverse crosslinked, eluted in elution buffer, and stored at −80° C. until used for sequencing or PCR validation assays. […] This immunoprecipitated DNA was used for PCR amplification by using the specific gene (IL-8 for humans and MCP-1 for mice) promoter PCR assays. PCR primers were used for the IL-8 promoter (forward: 5′-[…]-3′ and reverse: 5′-[…]-3′) and the MCP-1 promoter (forward: 5′-[…]-3′ and reverse: 5′-[…]-3′).

HDAC2 = experiment: Posttranslational modification of HDAC2 in alveolar macrophages (immunoblot, DAN, biotin-switch); format: cell-based, human
Protocol: S-nitrosylation of proteins was analyzed by anti-SNO antibody, biotin switch assay, and or 2,3-diaminonapthalene (DAN) assay. […] Detail methodology is described in supplementary data.
Macrophage cell or lung tissue extracts were prepared by using 100 μL of immunoprecipitation buffer (50 mM Tris-HCl, pH 8.0, 150 mM NaCl, 1.0% Triton X-100, 0.5% NP-40, 0.1% SDS, 0.5% deoxycholate, and complete protease inhibitor cocktail) from Roche (Morristown, N.J.). The lysis mixture was incubated on ice for 15 minutes and microcentrifuged for 10 minutes at 4° C. Extracts were precleared with 20 μL protein A/G sepharose beads (a 50:50 mix) from Thermo scientific (Rockford, Ill.) and 2 μg of normal IgG. After microcentrifugation, 20 μL of protein A/G sepharose conjugated with 5 μg of antibody was used to precipitate HDAC2 (Santa Cruz Biotechnology, Santa Cruz, Calif.) overnight at 4° C. with rotation. The immune complexes were pelleted with gentle centrifugation, washed twice with 1 mL of immunoprecipitation buffer, and divided equally for the final wash for the activity assay and immunoblotting. For the HDAC assay, immunoprecipitates were resuspended in the activity assay buffer (50 mM TrisHCl, pH 8.0; 10% glycerol; 1 mM dithiothreitol; 0.1 mM EDTA, complete protease inhibitor cocktail). For HDAC2-specific western blotting, immune complexes were washed three times with the immunoprecipitation buffer and finally resuspended in Laemmli buffer for the SDS-PAGE.
For HDAC2-specific nitrosylation detection, cells were lysed in buffer (50 mM Tris-HCl, pH 8.0, 150 mM NaCl, 1% Nonidet P-40, 0.5% deoxycholic acid, 0.1% SDS). […] The pellets were resuspended in 500 μL of PBS.
This assay was performed in the dark.
The Image J program was used for densitometry analyses.

[2] = GSNO-exposed alveolar macrophages
[3] = nuclear immunopurified HDAC2, compared with vehicle

Q: Which “clearance of nontypeable Haemophilus influenzae (decrease in CFU in culture medium)” value ([1]; COPD alveolar macrophages, compared to vehicle, 4 h with bacteria) does the source give for C[S+]([O-])CCCCN=C=S (centres unmarked) [sulforaphane] here?
A: 40-95%

Q: And the “bactericidal activity towards nontypeable Haemophilus influenzae” value ([1]; cell-free medium with sulforaphane alone)?
A: no bactericidal activity

Q: What about the “HDAC2 binding in the IL-8 promoter” value (IL-8 promoter; COPD alveolar macrophages) of the same compound?
A: significantly increased the levels of HDAC2 binding

Q: And the “HDAC2 binding in the IL-8 promoter” value (IL-8 promoter; in the presence of buthionine sulfoximine)?
A: failed to increase HDAC2 binding

Q: What about the “histone acetylation on the IL-8 promoter” value (IL-8 promoter; sulforaphane treatment with DEX) of the same compound?
A: concomitant reduction

Q: And the “histone acetylation in IL-8 promoter” value (IL-8 promoter; sulforaphane, baseline and after LPS)?
A: decrease in histone acetylation

Q: And the “S-nitrosylation of HDAC2” value (HDAC2; 2,3-diaminonaphthalene and biotin-switch assays)?
A: reduced

Q: What about the “levels of NO-Tyr HDAC2” value (HDAC2; [2]) of the same compound?
A: decreased the levels of both NO-Tyr HDAC2 and SNO-HDAC2

Q: What about the “levels of SNO-HDAC2” value (HDAC2; [2]) of the same compound?
A: decreased the levels of both NO-Tyr HDAC2 and SNO-HDAC2

Q: What about the “ability to reduce the levels of SNOHDAC2 protein” value (HDAC2; GSNO-exposed alveolar macrophages in the presence of buthionine sulfoximine) of the same compound?
A: ablated

Q: What about the “S-nitrosylation of HDAC2 (SNO-HDAC2)” value (HDAC2; anti-SNO antibody immunoblot) of the same compound?
A: significantly reduced

Q: What about the “tyrosine nitration of HDAC2 (nitrotyrosine-HDAC2)” value (HDAC2; immunopurified HDAC2 from alveolar macrophages, compared with vehicle) of the same compound?
A: Significant reductions

Q: What about the “serine phosphorylation of HDAC2” value (HDAC2; [3]) of the same compound?
A: Significant reductions

Q: What about the “ubiquitination of HDAC2” value (HDAC2; [3]) of the same compound?
A: Significant reductions
